In US11957665B1, “Pharmaceutical composition for preventing or treating alopecia areata acting as a functional antagonist for S1PR1 and S1PR4” (NEXTGEN BIOSCIENCE CO., LTD., priority 2022, dated 2024):

Experiments:
[1] = tested on: T cells, CD4 T cells, CD8 T cells; assay: Inhibitory effect of NXC736 on mouse immune cells (flow cytometry of lymphocytes in peripheral blood and bone marrow); format: in vivo, C57BL/6 mice; conditions: 3 mg/kg oral once
Protocol: To determine whether NXC736, which acts on the S1P receptor, also has an effect on lymphocyte reduction, the effect of NXC736 on immune cells was evaluated. After oral administration of NXC736 once at 3 mg/kg/day to C57BL/6 mice (Daehan BioLink (DBL), 4 mice in the control group and 18 mice in the test group), the change in lymphocytes in peripheral blood (PB), bone marrow (BM) was measured by classifying into T cells (using anti-mouse CD3ε-PE/cyanine7 antibody), CD4 T cells (using anti-mouse CD4-FITC antibody), and CD8 T cells (using anti-mouse CD8a-PerCP antibody). Specifically, measurements were made using a flow cytometer (FC500, Beckman coulter) at 0, 4, 8, 12, 24, and 36 hours after administration of the test substance, the analysis was performed using FlowJo™ V10 (Flowjo, LLC), and the numbers of T cells, CD4 T cells, and CD8 T cells were expressed as % of control based on time 0.

[2] = tested on: T cells, CD4 T cells, CD8 T cells; assay: Inhibitory effect of NXC736 on rat immune cells (flow cytometry of lymphocytes in peripheral blood and bone marrow); format: in vivo, SD rats; conditions: 10 mg/kg oral once, PB
Protocol: To evaluate the effect of NXC736 on rat immune cells, NXC736 was administered orally once at 10 mg/kg/day to SD rats (Daehan BioLink (DBL), 3 control groups, and 15 test groups), and then measurements were performed by classifying into T cells, CD4 T cells, and CD8 T cells in peripheral bloodstream (PB) and bone marrow (BM) using the same antibodies as in Experimental Example 1. Specifically, measurements were made using a flow cytometer (FC500, Beckman coulter) at 0, 4, 8, 12, 24, 36, and 48 hours after administration of the test substance, the analysis was performed using FlowJo™ V10 (Flowjo, LLC), and the numbers of T cells, CD4 T cells, and CD8 T cells were expressed as % of control based on time 0.

[3] = tested on: alopecia areata mouse model C3H/HeJ; assay: Efficacy in suppressing alopecia areata in C3H/HeJ alopecia areata mouse model; format: in vivo, C3H/HeJ mice
Protocol: The effectiveness of NXC736 for alopecia areata was evaluated using the alopecia areata mouse model C3H/HeJ (Jackson Lab, Saeron Bio). […] Conditions for the animal breeding room include a temperature of 23±3° C., relative humidity of 50±10%, and day and night maintained at 12-hour intervals, and experimental animals were raised in isolation breeding boxes (ThreeShine), and fed with food and drinking water for experimental animals ad libitum.
Mice were divided into two groups: the control group (sterilized distilled water administration group) and the NXC736 administration experimental group, five C3H/HeJ mice were randomly assigned per group, and from the time point lymph node cells were proliferated and injected into C3H/HeJ mice aged 10 to 16 weeks where no alopecia was induced, NXC736 was orally administered at 30 mg/kg for the NXC736 administration group and the same volume of sterilized distilled water was orally administered for the control group for 12 weeks once a day at the same time, respectively, and then the area of alopecia areata (AA) lesion area and disease free ratio were measured at intervals of 2 weeks.
The alopecia areata lesion area was measured using the Image J program (Version 1.44p) after taking a photograph.
The disease free ratio was defined as the proportion of mice administered the drug and not showing alopecia symptoms at a specified time point.

beagle dogs = assay: Effect on the cardiovascular system (heart rate, general symptoms) in beagle dogs; format: in vivo
Protocol: NXC736 was orally administered to four unanesthetized and unrestrained male beagle dogs (ORIENTBIO Inc., Republic of Korea) implanted with remote transmitters. Afterwards, the heart rate of four beagle dogs was measured to evaluate the effect of NXC736 on the cardiovascular system, and the occurrence of abnormal symptoms was visually checked.
In this experiment, 4 beagle dogs were administered with 0.5% MC aqueous solution, which is an excipient, as a control substance, and the heart rate was measured, and after 1 week, NXC736 was administered at 12.5 mg/kg and the heart rate was measured, after 1 week, NXC736 was administered at 25 mg/kg and the heart rate was measured, and after 1 week, NXC736 was administered at 50 mg/kg and the heart rate was measured.
The heart rate of beagle dogs was specifically measured at 0 hours before administration of the test substance, and 0.5 hours, 1 hour, 2 hours, 3 hours, 4 hours, 6 hours, 8 hours, 12 hours, and 24 hours after administration of the test substance.

[4] = molecular target: T1, hERG potassium ion channel (Homo sapiens, UniProt Q12809); assay: cell-based
T1 sequence (Q12809 whole entry): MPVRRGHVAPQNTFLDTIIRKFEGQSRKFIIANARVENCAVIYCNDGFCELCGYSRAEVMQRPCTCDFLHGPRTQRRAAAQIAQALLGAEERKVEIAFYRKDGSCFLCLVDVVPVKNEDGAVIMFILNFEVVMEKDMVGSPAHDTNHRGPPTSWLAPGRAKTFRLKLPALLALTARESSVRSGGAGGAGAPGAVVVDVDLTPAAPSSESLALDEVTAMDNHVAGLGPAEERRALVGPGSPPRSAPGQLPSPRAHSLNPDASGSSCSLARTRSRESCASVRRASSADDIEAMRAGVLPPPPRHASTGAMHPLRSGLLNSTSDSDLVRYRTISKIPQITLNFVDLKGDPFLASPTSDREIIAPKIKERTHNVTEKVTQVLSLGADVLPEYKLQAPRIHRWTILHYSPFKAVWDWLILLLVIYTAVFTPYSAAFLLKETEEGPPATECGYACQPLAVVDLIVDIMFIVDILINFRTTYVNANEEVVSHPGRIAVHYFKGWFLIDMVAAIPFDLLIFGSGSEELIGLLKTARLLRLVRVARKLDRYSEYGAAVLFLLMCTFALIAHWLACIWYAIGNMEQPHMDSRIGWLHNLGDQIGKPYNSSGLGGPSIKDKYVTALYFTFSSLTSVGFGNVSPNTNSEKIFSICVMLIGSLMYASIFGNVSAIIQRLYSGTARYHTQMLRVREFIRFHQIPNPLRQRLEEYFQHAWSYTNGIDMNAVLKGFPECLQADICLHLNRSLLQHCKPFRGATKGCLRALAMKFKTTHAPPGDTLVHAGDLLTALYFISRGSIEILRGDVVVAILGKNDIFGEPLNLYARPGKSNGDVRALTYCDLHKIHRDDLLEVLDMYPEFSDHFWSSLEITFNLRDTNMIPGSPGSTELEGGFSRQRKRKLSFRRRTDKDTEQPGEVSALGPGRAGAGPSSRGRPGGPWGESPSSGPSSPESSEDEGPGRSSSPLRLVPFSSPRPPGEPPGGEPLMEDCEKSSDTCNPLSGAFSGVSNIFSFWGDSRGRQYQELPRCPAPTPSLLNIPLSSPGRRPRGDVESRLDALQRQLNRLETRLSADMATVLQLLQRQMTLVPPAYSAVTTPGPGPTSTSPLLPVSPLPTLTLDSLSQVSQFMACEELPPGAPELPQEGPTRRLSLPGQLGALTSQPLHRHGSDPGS

[5] = molecular target: T1, hERG potassium ion channel; assay: Effect on hERG channel currents in HEK-293 cells overexpressing the hERG gene

## CCCCCCCCCCn1cc(CCC(N)(CO)CO)nn1 [NXC736, 2-amino-2-(2-(1-decyl-1H-1,2,3-triazol-4-yl)ethyl)propane-1,3-diol]
[1]
  time until which the decrease of T cells in PB was maintained: ≤ 12 h
[1]; at 36 hours
  T cells in PB after recovery (% of control): 88.9%
[2]
  time for which the immunosuppressive effect was maintained: up to 24 hours
[3]; 30 mg/kg oral once a day
  time to observe 100% alopecia areata (disease free ratio): up to 84 days
[3]; 30 mg/kg oral once a day for 12 weeks
  alopecia areata (AA) lesion area: approximately 10%
Beagle dogs; oral doses of 12.5, 25 and 50 mg/kg, 0-24 hours
  heart rate: no change in heart rate
Beagle dogs; oral doses of 12.5, 25 or 50 mg/kg
  general symptoms, naked eye: no abnormal symptoms were observed
[4]
  IC50: 12.9 µM
[5]
  hERG potassium channel activity, conclusion: does not inhibit hERG potassium channel activity
